Consider three compounds from patent US9512075B2 (OKAYAMA UNIVERSITY, priority 2012, dated 2016).

What all share (type): cell-based
In experiment [1] the test system is Clostridium perfringens PB6K strain. The experiment can be described thus: microbe, parasite or virus in culture. As to conditions: Clostridium perfringens, PB6KSTRAIN, read-out: MIC Clostridium perfringens PB6K, PB6K strain; CD medium, 37° C. overnight, 10% CO2-containing anaerobic conditions.
Experiment [2] relates to Staphylococcus aureus Smith strain. In words: MIC for Staphylococcus aureus Smith strain. The following applies: Smith strain, regular bouillon medium, 37° C. overnight, turbidity, read-out: MIC Straphyrococcus aureus Smith.
Experiment [3] relates to Staphylococcus aureus 209P strain. In words: MIC for Staphylococcus aureus 209P strain. As to conditions: Staphylococcus aureus; 209P strain; regular bouillon medium, 37° C. overnight, turbidity; read-out: MIC Straphyrococcus aureus 209P.
Experiment [4] has as its system Enterococcus faecalis NCTC12201 strain (vancomycin-resistant Enterococcus: VRE). The experiment can be described thus: MIC for Enterococcus faecalis NCTC12201 strain (VRE). As to conditions: NCTC12201 strain (VRE), Heart Infusion Broth medium, 37° C. overnight, turbidity, read-out: MIC Enterococcus faecalis NCTC 12201 (VRE).
Experiment [5] relates to Clostridium difficile JCM1296 strain. The experiment can be described thus: microbe, parasite or virus in culture. As to conditions: Clostridioides difficile, JCM1296, read-out: MIC Clostridium difficile JCM1296.
Experiment [6] has as its system Escherichia coli BE1121 strain. In words: MIC for Escherichia coli BE1121 strain. As to conditions: Escherichia coli, BE1121STRAIN; BE1121 strain; regular bouillon medium, 37° C. overnight, turbidity; read-out: MIC Escherichia coli BE1121.
Experiment [7] concerns Staphylococcus aureus MRSA No. 17 (methicillin-resistant Staphylococcus aureus: MRSA). The experiment can be described thus: MIC for Staphylococcus aureus MRSA No. 17. The following applies: MRSA No. 17, regular bouillon medium, 37° C. overnight, turbidity, read-out: MIC Straphyrococcus aureus MRSA No. 17 (MRSA).
In experiment [8] the test system is Enterococcus faecalis 5038 strain. In words: MIC for Enterococcus faecalis 5038 strain. The following applies: 5038 strain, Heart Infusion Broth medium, 37° C. overnight, turbidity, read-out: MIC Enterococcus faecalis 5038.
For experiment [9], the system named is Escherichia coli K-12 strain. The experiment can be described thus: MIC for Escherichia coli K-12 strain. The following applies: Escherichia coli, K12STRAIN; K-12 strain; regular bouillon medium, 37° C. overnight, turbidity; read-out: MIC Escherichia coli K12.

In brackets after ≈: the same amount, converted by molar mass. Some results are limits rather than exact numbers.

`CCCCC1CCC(C(O)=C2C(=O)N(C(=O)OC(C)(C)C)c3cc(Cl)ccc32)CC1` (stereo not drawn) [A009, N-Boc-3-(4-butylcyclohexylcarbonyl)-6-chloro-2-oxyindole]: the MIC in [1] worked out at 1 µg/mL (≈ 2.3 µM); in experiment [2] it was 32 µg/mL (≈ 73.7 µM); in [3] it was 128 µg/mL (≈ 295 µM); in [4] it was 4 µg/mL (≈ 9.22 µM); in experiment [5], 0.5 µg/mL (≈ 1.15 µM); in [6] it was 128 µg/mL (≈ 295 µM). In addition, the MIC in experiment [7] came out at 256 µg/mL (≈ 590 µM); in [8], 4 µg/mL (≈ 9.22 µM); in experiment [9] it was 128 µg/mL (≈ 295 µM).
As for `CCCCCCCCCCCCNC(=O)c1c(O)c2ccccc2oc1=O` [B025, 3-(dodecylaminocarbonyl)-4-hydroxycoumarin], the MIC in [1] is 4 µg/mL (≈ 10.7 µM); in [2], 2 µg/mL (≈ 5.35 µM); in experiment [3], 8 µg/mL (≈ 21.4 µM); in experiment [4], 1 µg/mL (≈ 2.68 µM); in [5], 4 µg/mL (≈ 10.7 µM); in [6], 256 µg/mL (≈ 685 µM). Besides, the MIC worked out at 8 µg/mL (≈ 21.4 µM) in [7], 2 µg/mL (≈ 5.35 µM) in [8] and 256 µg/mL (≈ 685 µM) in experiment [9].
Take `CCCCCCCCCCOCC(O)=C1C(=O)N(C(C)=O)c2ccc(F)cc21` [A023, N-acetyl-3-decyloxyacetyl-5-fluoro-2-oxyindole]: the MIC was < 0.125 µg/mL in [1]; 1 µg/mL (≈ 2.55 µM) in experiment [2]; 128 µg/mL (≈ 327 µM) in experiment [3]; 0.25 µg/mL (≈ 0.639 µM) in experiment [4]; < 0.125 µg/mL in experiment [5]; 128 µg/mL (≈ 327 µM) in experiment [6]. In addition, the MIC in experiment [7] worked out at 64 µg/mL (≈ 163 µM); in experiment [8] it was 0.25 µg/mL (≈ 0.639 µM); in [9], 128 µg/mL (≈ 327 µM).
